Inconclusive results are not listed. The source made the active and inactive calls.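 Rule for the calls: active = fitted EC50 no higher than ten times the highest tested concentration; inconclusive = flat fit with 30 to 70% inhibition, or poor fit; inactive = EC50 beyond ten times the top tested dose.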
System: C. albicans CaCi-2 + fluconazole, Alamar Blue growth, 48 h
Test: C. albicans growth inhibition with fluconazole, dose response, C. albicans CaCi-2 (fluconazole-resistant clinical isolate), fluorescence, retest (AID 434930)

Compound	EC50
Cc1ccc(C(=O)c2coc3c2C(=O)C(=O)c2ccccc2-3)cc1	2.89 µM
O=C(Nc1nnc(-c2ccc3c(c2)CCCC3)o1)c1ccc(Cl)cc1Cl	0.321 µM
CC(C)COCc1ccc(O)c2ncccc12	16.5 µM
CCCC(=O)NC(c1ccc(Cl)cc1)c1ccc2cccnc2c1O (stereo not drawn)	0.485 µM
COc1ccc(-n2nc(C(=O)NCC(=O)N3CCN(c4ccccc4)CC3)c3ccccc3c2=O)c(OC)c1	7.17 µM
COc1ccc(-c2nnc(NC(=O)c3ccc(F)cc3)o2)cc1	0.489 µM
O=C(Nc1sc2c(c1C(=O)c1ccc(Cl)cc1)CCCC2)c1cccnc1	1.83 µM
O=C(Oc1c(Cl)cc(Cl)c2cccnc12)c1cccs1	0.28 µM
COc1cc2c(cc1NC(=O)c1ccco1)CCCC2	0.103 µM
O=C(Nc1nnc(-c2ccco2)o1)c1ccc(Cl)cc1	1.28 µM
O=C(Nc1nc(-c2ccccn2)cs1)c1ccc(Br)s1	11.1 µM
Nc1nccnc1C(=O)Nc1nnc(SCc2ccc(Cl)cc2)s1	2.11 µM
Cc1ccc(C(=O)Nc2cccc(-c3cn4ccccc4n3)c2)cc1	6.79 µM
O=c1c2cc(Br)ccc2nc(-c2cccc(C(F)(F)F)c2)n1O	4.16 µM
O=C(NNC1=C(C(=O)C(F)(F)F)CCC1)c1ccc(Cl)cc1	18.8 µM
Clc1ccc2c(c1)C(c1cccs1)=NNC(c1cccnc1)=N2	0.0778 µM
Cc1nc2ccccc2cc1OCc1ccc(F)cc1	8.45 µM
CCCC(=O)NC(c1ccccc1)c1ccc2cccnc2c1O (stereo not drawn)	0.577 µM
Cc1oc2c(F)c(F)c(F)c(F)c2c1S(=O)(=O)Nc1cccc(C(F)(F)F)c1	10.8 µM
CCOC(=O)N1C(=O)C2(CCCCC2)N(c2ccc(C)cc2)C1=S	< 0.1 µM
Cc1ccc(/C=C/C(=O)c2ccccc(=O)c2O)cc1C	> 26 µM (inactive)
O=C(Nc1nnc(CCc2ccccc2)s1)c1ccco1	3.08 µM
CC(C)N1CCc2c(sc(NC(=O)c3nc4ccccc4s3)c2C(N)=O)C1	1.19 µM
